Laboratory results: the supplement of paper PMC11061612

Assays:
Test in all cases: combination Emax (second highest fraction inhibited in the dose matrix, 72 h); higher = more inhibition; extreme values may be limits of the assay
[1] = system: BHT-101 (Thyroid Gland Carcinoma)
Summary of the method: (§1)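 Cell lines grown in DMEM/F12 or RPMI with 10% FBS were plated in 1536-well plates and held 24 hours at 37°C, 5% CO2 before 72 hours of exposure to two-drug dose matrices, with DMSO typically at 0.2%. CellTiter-Glo 2.0 luminescence gave viability, which was converted to inhibition. Vehicle wells were set to 0 and blank wells to 1. Combination Emax is the second-highest inhibition in the matrix, and Bliss excess is the observed combination effect minus the expected EA + EB − EA·EB, where EA and EB are the single-agent effects.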

[2] = system: BxPC-3 (Pancreatic Carcinoma)
Summary of the method: as §1

[3] = system: C-33-A (Cervical Carcinoma)
Summary of the method: as §1

[4] = system: HT-1080 (Other Solid Carcinomas)
Summary of the method: as §1

IST-MEL1 (Melanoma) = system: IST-MEL1 (Melanoma)
Summary of the method: as §1

KALS-1 (Glioblastoma) = system: KALS-1 (Glioblastoma)
Summary of the method: as §1

[5] = system: LS-1034 (Colorectal Carcinoma)
Summary of the method: as §1

[6] = system: MOLP-8 (Plasma Cell Myeloma)
Summary of the method: as §1

[7] = system: MONO-MAC-6 (Acute Myeloid Leukemia)
Summary of the method: as §1

[8] = system: OVCAR-3 (Ovarian Carcinoma)
Summary of the method: as §1

SK-N-SH (Neuroblastoma) = system: SK-N-SH (Neuroblastoma)
Summary of the method: as §1

[9] = system: SKG-IIIa (Cervical Carcinoma)
Summary of the method: as §1

WM35 (Melanoma) = system: WM35 (Melanoma)
Summary of the method: as §1

[10] = system: ZR-75-30 (Breast Carcinoma)
Summary of the method: as §1

SMILES	combination Emax [1]	combination Emax [2]	combination Emax [3]	combination Emax [4]	combination Emax (IST-MEL1 (Melanoma))	combination Emax (KALS-1 (Glioblastoma))	combination Emax [5]	combination Emax [6]	combination Emax [7]	combination Emax [8]	combination Emax (SK-N-SH (Neuroblastoma))	combination Emax [9]	combination Emax (WM35 (Melanoma))	combination Emax [10]
Cc1cc2ncnn2cc1Nc1ncc2c(n1)n(C1CCOCC1)c(=O)n2C [AZD7648] + CN(C)CCCOc1ccc(-c2ccc3ncc4c(c3c2)n(C2CCOCC2)c(=O)n4C)cn1 [AZD0156] (first compound max 10 µM, 7x7, partner max 1 µM)	0.366	0.176	0.372	0.151	0.275	0.346	0.239	0.514	0.497	0.116	0.366	0.241	0.129	0.194
Cc1cc2ncnn2cc1Nc1ncc2c(n1)n(C1CCOCC1)c(=O)n2C [AZD7648] + C[C@@H]1COCCN1C2=NC(=NC(=C2)C3(CC3)[S@](=N)(=O)C)C4=C5C=CNC5=NC=C4 [AZD6738] (first compound max 10 µM, 7x7, partner max 10 µM)	0.626	0.36	0.913	0.426	0.777	0.866	0.696	0.822	0.899	0.233	0.859	0.318	0.497	0.17
Cc1cc2ncnn2cc1Nc1ncc2c(n1)n(C1CCOCC1)c(=O)n2C [AZD7648] + O=C(c1cc(Cc2n[nH]c(=O)c3ccccc23)ccc1F)N1CCN(C(=O)C2CC2)CC1 [Olaparib] (first compound max 10 µM, 7x7, partner max 10 µM)	0.383	0.0851	0.305	0.147	0.24	0.18	0.0469	0.382	0.317	0.145	0.444	0.0374	0.119	0.12
COc1cccc2c1C(=O)c1c(O)c3c(c(O)c1C2=O)C[C@@](O)(C(=O)CO)C[C@@H]3O[C@H]1C[C@H](N)[C@H](O)[C@H](C)O1 [Doxorubicin] + Cc1cc2ncnn2cc1Nc1ncc2c(n1)n(C1CCOCC1)c(=O)n2C [AZD7648] (first compound max 1 µM, 7x7, partner max 10 µM)	0.563	0.455	0.904	0.67	0.724	0.832	0.376	0.915	0.999	0.426	0.974	0.512	0.564	0.3
COc1cccc(OCCCN)c1-c1cc(Nc2cnc(C#N)cn2)n[nH]1 [Prexasertib] + C=CCn1c(=O)c2cnc(Nc3ccc(N4CCN(C)CC4)cc3)nc2n1-c1cccc(C(C)(C)O)n1 [AZD1775] (first compound max 1 µM, partner max 1 µM)	0.881	0.76	0.985	0.576	0.812	0.901	0.835	0.909	1	0.885	0.939	0.527	0.819	0.137
COc1cccc(OCCCN)c1-c1cc(Nc2cnc(C#N)cn2)n[nH]1 [Prexasertib] + CCc1c2c(nc3ccc(O)cc13)-c1cc3c(c(=O)n1C2)COC(=O)[C@]3(O)CC [SN-38] (first compound max 1 µM, 7x7, partner max 0.3 µM)	0.91	0.796	0.992	0.651	0.889	0.951	0.897	0.847	1	0.963	0.947	0.595	0.726	0.14
COc1cccc(OCCCN)c1-c1cc(Nc2cnc(C#N)cn2)n[nH]1 [Prexasertib] + CN(C)CCCOc1ccc(-c2ccc3ncc4c(c3c2)n(C2CCOCC2)c(=O)n4C)cn1 [AZD0156] (first compound max 1 µM, 7x7, partner max 1 µM)	0.799	0.66	0.842	0.563	0.75	0.839	0.724	0.894	0.963	0.758	0.876	0.389	0.845	0.117
COc1cccc(OCCCN)c1-c1cc(Nc2cnc(C#N)cn2)n[nH]1 [Prexasertib] + C[C@@H]1COCCN1C2=NC(=NC(=C2)C3(CC3)[S@](=N)(=O)C)C4=C5C=CNC5=NC=C4 [AZD6738] (first compound max 1 µM, 7x7, partner max 10 µM)	0.78	0.633	0.913	0.534	0.817	0.899	0.71	0.891	0.993	0.773	0.901	0.453	0.833	0.166
COc1cccc(OCCCN)c1-c1cc(Nc2cnc(C#N)cn2)n[nH]1 [Prexasertib] + Cc1cc2ncnn2cc1Nc1ncc2c(n1)n(C1CCOCC1)c(=O)n2C [AZD7648] (first compound max 1 µM, 7x7, partner max 10 µM)	0.748	0.68	0.882	0.557	0.772	0.866	0.685	0.897	0.976	0.784	0.844	0.389	0.772	0.17
COc1cccc(OCCCN)c1-c1cc(Nc2cnc(C#N)cn2)n[nH]1 [Prexasertib] + O=C(c1cc(Cc2n[nH]c(=O)c3ccccc23)ccc1F)N1CCN(C(=O)C2CC2)CC1 [Olaparib] (first compound max 1 µM, 7x7, partner max 10 µM)	0.774	0.682	0.819	0.542	0.706	0.785	0.685	0.882	0.976	0.821	0.834	0.373	0.79	0.202
COc1cc2c(cc1OCCCCCOc1cc3c(cc1OC)C(=O)N1C=C(C)C[C@H]1C=N3)N=C[C@@H]1CC(C)=CN1C2=O [SG3199] + O=C(c1cc(Cc2n[nH]c(=O)c3ccccc23)ccc1F)N1CCN(C(=O)C2CC2)CC1 [Olaparib] (first compound max 0.001 µM, 7x7, partner max 10 µM)	0.193	0.101	0.189	0.12	0.181	0.163	0.0272	0.233	0.234	0.127	0.274	0.144	0.144	0.308
CCc1c2c(nc3ccc(O)cc13)-c1cc3c(c(=O)n1C2)COC(=O)[C@]3(O)CC [SN-38] + CN(C)CCCOc1ccc(-c2ccc3ncc4c(c3c2)n(C2CCOCC2)c(=O)n4C)cn1 [AZD0156] (first compound max 0.3 µM, 7x7, partner max 1 µM)	0.774	0.523	0.802	0.374	0.864	0.596	0.814	0.78	1	0.449	0.909	0.42	0.509	0.0683
CC(=O)Nc1cccc(-n2c(=O)n(C3CC3)c(=O)c3c(Nc4ccc(I)cc4F)n(C)c(=O)c(C)c32)c1 [Trametinib] + Cc1nc(-c2cn3c(n2)-c2ccc(-c4cnn(C(C)(C)C(N)=O)c4)cc2OCC3)n(C(C)C)n1 [Taselisib] (first compound max 1 µM, 7x7, partner max 10 µM)	1	1	0.669	0.628	0.932	0.951	0.787	1	1	0.652	0.827	0.527	0.97	0.667
CC1(C)CCC(CN2CCN(c3ccc(C(=O)NS(=O)(=O)c4ccc(NCC5CCOCC5)c([N+](=O)[O-])c4)c(Oc4cnc5[nH]ccc5c4)c3)CC2)=C(c2ccc(Cl)cc2)C1 [Venetoclax] + C1CN(CCC1(C(=O)N[C@@H](CCO)C2=CC=C(C=C2)Cl)N)C3=NC=NC4=C3C=CN4 [Capivasertib] (first compound max 1 µM, 7x7, partner max 3 µM)	0.214	0.297	0.547	0.127	0.36	0.714	0.207	0.385	0.704	0.161	0.394	0.224	0.178	0.312
CC1(C)CCC(CN2CCN(c3ccc(C(=O)NS(=O)(=O)c4ccc(NCC5CCOCC5)c([N+](=O)[O-])c4)c(Oc4cnc5[nH]ccc5c4)c3)CC2)=C(c2ccc(Cl)cc2)C1 [Venetoclax] + C=CCn1c(=O)c2cnc(Nc3ccc(N4CCN(C)CC4)cc3)nc2n1-c1cccc(C(C)(C)O)n1 [AZD1775] (first compound max 1 µM, partner max 1 µM)	0.489	0.727	0.961	0.349	0.799	0.93	0.56	0.75	0.992	0.63	0.889	0.271	0.165	0.159
CC1(C)CCC(CN2CCN(c3ccc(C(=O)NS(=O)(=O)c4ccc(NCC5CCOCC5)c([N+](=O)[O-])c4)c(Oc4cnc5[nH]ccc5c4)c3)CC2)=C(c2ccc(Cl)cc2)C1 [Venetoclax] + CCN(CCO)CCCOc1ccc2c(Nc3cc(CC(=O)Nc4cccc(F)c4)[nH]n3)ncnc2c1 [AZD2811] (first compound max 1 µM, 7x7, partner max 1 µM)	0.157	0.365	0.312	0.27	0.504	0.661	0.114	0.406	0.981	0.194	0.73	0.229	0.152	0.11
